Experimental data: the supplement of paper PMC10307832

What follows are cell lines tested with CCCS(=O)(=O)Nc1ccc(F)c(C(=O)c2c[nH]c3ncc(-c4ccc(Cl)cc4)cc23)c1F [Vemurafenib] + N=C(N)NC(=N)NCCc1ccccc1 [Phenformin] (partner 250 µM) (assay: relative viability (nuclei count vs DMSO), 5 days (fraction); higher = more cells survive). Settings: first compound 0.03162 µM.
Method in brief: (§1)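 Relative viability was taken as the ratio of nuclei in treated wells to nuclei in vehicle wells. Lung cancer cell lines in 1536-well plates received compounds by pin tool one day after seeding, either one drug alone or a fixed anchor-drug dose plus five library-drug doses (not always all listed) in √10 steps. Nuclei were counted on 4× images after 5 days of treatment, and values are medians of duplicate plates.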

| Cell Line | relative viability |
| --- | --- |
| NCI-H1755 | 0.545 |
| NCI-H2023 | 0.376 |
| NCI-H1623 | 0.565 |
| NCI-H1793 | 0.338 |
| NCI-H2342 | 0.443 |
| H3255 | 0.3 |
| NCI-H1975 | 0.422 |
| PC-14 | 0.456 |
| NCI-H1437 | 0.258 |
| HOP-62 | 0.628 |
| HCC-44 | 0.157 |
| BEN | 0.255 |
| LOU-NH91 | 0.644 |
| NCI-H661 | 0.251 |
| NCI-H1651 | 0.318 |
| PC-3 [JPC-3] | 0.482 |
| SW 1573 | 0.386 |
| LK-2 | 0.396 |
| NCI-H2405 | 0.382 |

| Cell Line | relative viability |
| --- | --- |
| NCI-H1993 | 0.532 |
| ChaGo-K-1 | 0.472 |
| NCI-H1355 | 0.424 |
| HCC-366 | 0.61 |
| NCI-H1915 | 0.354 |
| NCI-H838 | 0.506 |
| A-427 | 0.317 |
| NCI-H2009 | 0.458 |
| ABC-1 | 0.241 |
| NCI-H2170 | 0.396 |
| NCI-H522 | 0.651 |
| NCI-H1944 | 0.206 |
| NCI-H1792 | 0.228 |
| NCI-H1395 | 0.425 |
| NCI-H358 | 0.282 |
| A549 | 0.163 |
| SW 900 | 0.532 |
| SK-MES-1 | 0.624 |

Same assay, conditions: first compound 0.1 µM

| Cell Line | relative viability |
| --- | --- |
| NCI-H2126 | 0.485 |
| EPLC-272H | 0.226 |
| NCI-H1755 | 0.599 |
| NCI-H2023 | 0.381 |
| NCI-H1650 | 0.353 |
| NCI-H2342 | 0.574 |
| NCI-H1975 | 0.406 |
| NCI-H1437 | 0.315 |
| HOP-62 | 0.651 |
| HCC-44 | 0.206 |
| BEN | 0.299 |
| NCI-H661 | 0.289 |
| NCI-H1651 | 0.295 |
| SW 1573 | 0.308 |
| LK-2 | 0.609 |
| NCI-H2405 | 0.374 |
| ChaGo-K-1 | 0.545 |

| Cell Line | relative viability |
| --- | --- |
| NCI-H1355 | 0.426 |
| HCC-366 | 0.565 |
| NCI-H1915 | 0.348 |
| NCI-H838 | 0.581 |
| A-427 | 0.313 |
| NCI-H2009 | 0.418 |
| ABC-1 | 0.297 |
| NCI-H2170 | 0.354 |
| NCI-H522 | 0.536 |
| NCI-H1944 | 0.18 |
| NCI-H1792 | 0.236 |
| NCI-H1395 | 0.433 |
| NCI-H358 | 0.19 |
| A549 | 0.154 |
| SW 900 | 0.454 |
| SK-MES-1 | 0.695 |

Same assay, conditions: first compound 0.3162 µM

| Cell Line | relative viability |
| --- | --- |
| EPLC-272H | 0.263 |
| NCI-H1755 | 0.377 |
| NCI-H2023 | 0.378 |
| NCI-H1623 | 0.623 |
| NCI-H1793 | 0.333 |
| NCI-H2342 | 0.622 |
| H3255 | 0.342 |
| NCI-H1975 | 0.289 |
| PC-14 | 0.218 |
| NCI-H1437 | 0.29 |
| HOP-62 | 0.585 |
| NCI-H661 | 0.258 |
| NCI-H1651 | 0.325 |
| PC-3 [JPC-3] | 0.498 |
| SW 1573 | 0.4 |
| LK-2 | 0.398 |

| Cell Line | relative viability |
| --- | --- |
| NCI-H1993 | 0.595 |
| ChaGo-K-1 | 0.352 |
| NCI-H1355 | 0.36 |
| HCC-366 | 0.247 |
| NCI-H1915 | 0.255 |
| A-427 | 0.267 |
| NCI-H2009 | 0.343 |
| ABC-1 | 0.276 |
| NCI-H2170 | 0.376 |
| NCI-H522 | 0.547 |
| NCI-H1944 | 0.122 |
| NCI-H1792 | 0.115 |
| NCI-H358 | 0.448 |
| SW 900 | 0.476 |
| SK-MES-1 | 0.622 |

Same assay, conditions: first compound 1 µM

| Cell Line | relative viability |
| --- | --- |
| NCI-H2126 | 0.533 |
| EPLC-272H | 0.362 |
| NCI-H1755 | 0.597 |
| NCI-H2023 | 0.354 |
| NCI-H1623 | 0.569 |
| NCI-H1650 | 0.376 |
| NCI-H1793 | 0.338 |
| NCI-H2342 | 0.737 |
| H3255 | 0.332 |
| NCI-H1975 | 0.466 |
| PC-14 | 0.652 |
| NCI-H1437 | 0.309 |
| HOP-62 | 0.595 |
| HCC-44 | 0.213 |
| BEN | 0.249 |
| LOU-NH91 | 0.731 |
| NCI-H661 | 0.307 |
| NCI-H1651 | 0.311 |
| PC-3 [JPC-3] | 0.513 |
| SW 1573 | 0.395 |

| Cell Line | relative viability |
| --- | --- |
| LK-2 | 0.185 |
| NCI-H2405 | 0.368 |
| NCI-H1993 | 0.468 |
| ChaGo-K-1 | 0.481 |
| NCI-H1355 | 0.487 |
| HCC-366 | 0.593 |
| NCI-H1915 | 0.332 |
| NCI-H838 | 0.672 |
| A-427 | 0.365 |
| NCI-H2009 | 0.361 |
| ABC-1 | 0.246 |
| NCI-H2170 | 0.454 |
| NCI-H522 | 0.622 |
| NCI-H1944 | 0.191 |
| NCI-H1792 | 0.336 |
| NCI-H1395 | 0.495 |
| NCI-H358 | 0.455 |
| A549 | 0.146 |
| SW 900 | 0.614 |
| SK-MES-1 | 0.706 |

The cell lines below were run with COc1cccc2cc(-c3nc([C@H]4CC[C@H](C(=O)O)CC4)n4ncnc(N)c34)[nH]c12 [OSI-027] + CC(C)C[C@H](NC(=O)[C@H](Cc1ccccc1)NC(=O)c1cnccn1)B(O)O [Bortezomib] (partner 0.002 µM) in the same assay as above. Settings: first compound 0.01 µM.
Method in brief: as §1

| Cell Line | relative viability |
| --- | --- |
| NCI-H2126 | 1.02 |
| EPLC-272H | 0.871 |
| NCI-H1755 | 1 |
| NCI-H2023 | 0.944 |
| NCI-H1650 | 0.171 |
| H3255 | 0.825 |
| NCI-H1975 | 0.41 |
| PC-14 | 1.03 |
| NCI-H1299 | 1.09 |
| NCI-H1437 | 0.43 |
| HOP-62 | 0.679 |
| HCC-44 | 0.929 |
| BEN | 0.653 |
| LOU-NH91 | 0.452 |
| NCI-H661 | 0.811 |
| NCI-H1651 | 0.929 |
